Assays:
Assay type in all cases: in vivo
[1] = test system: green foxtail (Setaria viridis, SETVI); assay: Greenhouse herbicide screen, pre-emerge application, phytotoxicity rating; settings: PRE emergent, 14 days after application, rating scale 0-100
Summary of the method: (§1)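 Crop and weed responses were judged visually on a 0–100 scale two weeks post-treatment. Treatments: acetone solutions, 15–1000 g ai/ha, sprayed at 187 l/ha onto pre-emerge soil or 2–3-leaf plants.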

[2] = test system: velvetleaf (Abutilon theophrasti, ABUTH); assay: as above; settings: PRE emergent, 14 days after application, rating scale 0-100
Summary of the method: as §1

[3] = test system: large crabgrass (Digitaria sanguinalis, DIGSA); assay: as above; settings: PRE emergent, 14 days after application, rating scale 0-100
Summary of the method: as §1

[4] = test system: sicklepod (Cassia obtusifolia, CASOB); assay: as above; settings: PRE emergent, 14 days after application, rating scale 0-100
Summary of the method: as §1

[5] = test system: lambsquarters (Chenopodium album, CHEAL); assay: as above; settings: PRE emergent, 14 days after application, rating scale 0-100
Summary of the method: as §1

[6] = test system: barnyardgrass (Echinochloa crus-galli, ECHCG); assay: as above; settings: PRE emergent, 14 days after application, rating scale 0-100
Summary of the method: as §1

[7] = test system: johnsongrass (Sorghum halepense, SORHA); assay: as above; settings: PRE emergent, 14 days after application, rating scale 0-100
Summary of the method: as §1

[8] = test system: common ragweed (Ambrosia artemisiifolia L., AMBEL); assay: as above; settings: PRE emergent, 14 days after application, rating scale 0-100
Summary of the method: as §1

[9] = test system: redroot pigweed (Amaranthus retrofiexus, AMARE); assay: as above; settings: PRE emergent, 14 days after application, rating scale 0-100
Summary of the method: as §1

[10] = test system: cocklebur (Xanthium strumarium, XANST); assay: as above; settings: PRE emergent, 14 days after application, rating scale 0-100
Summary of the method: as §1

[11] = test system: ivyleaf morningglory (Ipomoea hederacea, IPOHE); assay: as above; settings: PRE emergent, 14 days after application, rating scale 0-100
Summary of the method: as §1

[12] = test system: green foxtail (Setaria viridis, SETVI); assay: Greenhouse herbicide screen, post-emerge application, phytotoxicity rating; settings: POST emergent, 14 days after application, scale 0-100
Summary of the method: as §1

[13] = test system: velvetleaf (Abutilon theophrasti, ABUTH); assay: as above; settings: POST emergent, 14 days after application, scale 0-100
Summary of the method: as §1

[14] = test system: large crabgrass (Digitaria sanguinalis, DIGSA); assay: as above; settings: POST emergent, 14 days after application, scale 0-100
Summary of the method: as §1

[15] = test system: sicklepod (Cassia obtusifolia, CASOB); assay: as above; settings: POST emergent, 14 days after application, scale 0-100
Summary of the method: as §1

[16] = test system: lambsquarters (Chenopodium album, CHEAL); assay: as above; settings: POST emergent, 14 days after application, scale 0-100
Summary of the method: as §1

[17] = test system: barnyardgrass (Echinochloa crus-galli, ECHCG); assay: as above; settings: POST emergent, 14 days after application, scale 0-100
Summary of the method: as §1

[18] = test system: johnsongrass (Sorghum halepense, SORHA); assay: as above; settings: POST emergent, 14 days after application, scale 0-100
Summary of the method: as §1

[19] = test system: common ragweed (Ambrosia artemisiifolia L., AMBEL); assay: as above; settings: POST emergent, 14 days after application, scale 0-100
Summary of the method: as §1

[20] = test system: redroot pigweed (Amaranthus retrofiexus, AMARE); assay: as above; settings: POST emergent, 14 days after application
Summary of the method: as §1

[21] = test system: cocklebur (Xanthium strumarium, XANST); assay: as above; settings: POST emergent, 14 days after application, scale 0-100
Summary of the method: as §1

[22] = test system: ivyleaf morningglory (Ipomoea hederacea, IPOHE); assay: as above; settings: POST emergent, 14 days after application, scale 0-100
Summary of the method: as §1

[23] = test system: upland rice (Oryza sp., var.Cocodrie, RICE); assay: Greenhouse herbicide screen, pre-emerge application, crop damage rating; settings: PRE emergent, 14 days after application, rating scale 0-100
From the text: (§2) A standard greenhouse herbicide activity screening system was used to evaluate the herbicidal efficacy and crop safety of these test compounds. Seven broadleaf weed species including redroot pigweed (Amaranthus retrofiexus, AMARE), velvetleaf (Abutilon theophrasti, ABUTH), sicklepod (Cassia obtusifolia, CASOB), ivyleaf morningglory (Ipomoea hederacea, IPOHE), lambsquarters (Chenopodium album, CHEAL), common ragweed (Ambrosia artemisiifolia L., AMBEL), and cocklebur (Xanthium strumarium, XANST) were used as test species. Four grass weed species including green foxtail (Setaria viridis, SETVI), barnyardgrass (Echinochloa crus-galli, ECHCG), johnsongrass (Sorghum halepense, SORHA), and large crabgrass (Digitaria sanguinalis, DIGSA) were also used. In addition, four crop species, field corn (Zea mays L., var. Dekalb 535, CORN), soybean (Glycine max L., var. Pella 86, SOY), upland rice (Oryza sp., var.Cocodrie, RICE) and wheat (Triticum aestivum L.) were included.
(§3) All plants were grown in 10 cm square plastic pots which were filled with a sandy loam soil mix. For pre-emerge tests, seeds were planted one day prior to application of the test compounds. For post-emerge tests, seeds were planted 8-21 days prior to the test to allow emergence and good foliage development prior to application of the test substances. At the time of the post-emerge application, plants of all species were usually at the 2-3 leaf stage of development.
(§4) All test compounds were dissolved in acetone and applied to the test units in a volume of 187 l/ha. Test materials were applied at rates ranging from 15 g ai/ha to 1000 g ai/ha using a track sprayer equipped with a TJ8001E even flow flat fan spray nozzle. Plants were arranged on a shelf so that the top of the canopy (post-emerge) or top of the soil surface (pre-emerge) was 40-45 cm below the nozzle. Pressurized air was used to force the test solution through the nozzle as it was mechanically advanced (via electrically driven chain drive) over the top of all test plants/pots. This application simulates a typical commercial field herbicide application.
(§5) Pre-emergence tests were top watered immediately after treatment to incorporate the test materials, then routinely top-watered for normal growth. Post-emerge test units were always bottom-watered.
(§6) At 14 days after application of the test materials, phytotoxicity ratings were recorded. A rating scale of 0-100 was used as previously described in Research Methods in Weed Science, 2nd edition, B. Truelove, Ed., Southern Weed Science Society, Auburn University, Auburn, Ala., 1977. Briefly, “0” corresponds to no damage and “100” corresponds to complete death of all plants in the test unit. This scale was used both to determine efficacy against weed species and damage to crop species. Herbicide activity data for various compounds of this invention, which are shown by compound No. in Tables 1-12, are shown in Tables 13 and 14.

[24] = test system: field corn (Zea mays L., var. Dekalb 535, CORN); assay: as above; settings: PRE emergent, 14 days after application, rating scale 0-100
From the text: as §2, §3, §4, §5, §6

[25] = test system: upland rice (Oryza sp., var.Cocodrie, RICE); assay: Greenhouse herbicide screen, post-emerge application, crop damage rating; settings: POST emergent, 14 days after application, scale 0-100
From the text: as §2, §3, §4, §5, §6

[26] = test system: field corn (Zea mays L., var. Dekalb 535, CORN); assay: as above; settings: POST emergent, 14 days after application, scale 0-100
From the text: as §2, §3, §4, §5, §6

Q: How did the “phytotoxicity rating SETVI” value ([1]; 63 g ai/ha) turn out when `CCOC(=O)NNC(=O)c1cc(-n2c(=O)cc(C(F)(F)F)n(C)c2=O)c(F)cc1Cl` [Compound 1-23] was run?
A: The value was 55.

Q: What about the “phytotoxicity rating SETVI” value ([1]; 250 g ai/ha) of the same compound?
A: Its value is 99.

Q: What about the “phytotoxicity rating ABUTH” value ([2]; 63 g ai/ha) of the same compound?
A: The value was 100.

Q: And the “phytotoxicity rating ABUTH” value ([2]; 250 g ai/ha)?
A: Its value is 100.

Q: What about the “phytotoxicity rating DIGSA” value ([3]; 63 g ai/ha) of the same compound?
A: Its value is 75.

Q: And the “phytotoxicity rating DIGSA” value ([3]; 250 g ai/ha)?
A: The value was 75.

Q: And the “phytotoxicity rating CASOB” value ([4]; 63 g ai/ha)?
A: The value was 98.

Q: What about the “phytotoxicity rating CASOB” value ([4]; 250 g ai/ha) of the same compound?
A: Its value is 98.

Q: And the “phytotoxicity rating CHEAL” value ([5]; 63 g ai/ha)?
A: Its value is 100.

Q: And the “phytotoxicity rating CHEAL” value ([5]; 250 g ai/ha)?
A: Its value is 100.

Q: What about the “phytotoxicity rating ECHCG” value ([6]; 63 g ai/ha) of the same compound?
A: Its value is 50.

Q: And the “phytotoxicity rating ECHCG” value ([6]; 250 g ai/ha)?
A: Its value is 75.

Q: What about the “phytotoxicity rating SORHA” value ([7]; 63 g ai/ha) of the same compound?
A: The value was 70.

Q: And the “phytotoxicity rating SORHA” value ([7]; 250 g ai/ha)?
A: Its value is 99.

Q: And the “phytotoxicity rating AMBEL” value ([8]; 63 g ai/ha)?
A: The value was 85.

Q: And the “phytotoxicity rating AMBEL” value ([8]; 250 g ai/ha)?
A: Its value is 100.

Q: And the “phytotoxicity rating AMARE” value ([9]; 63 g ai/ha)?
A: The value was 100.

Q: And the “phytotoxicity rating AMARE” value ([9]; 250 g ai/ha)?
A: The value was 100.

Q: What about the “phytotoxicity rating XANST” value ([10]; 63 g ai/ha) of the same compound?
A: The value was 100.

Q: And the “phytotoxicity rating XANST” value ([10]; 250 g ai/ha)?
A: The value was 100.

Q: What about the “phytotoxicity rating IPOHE” value ([11]; 63 g ai/ha) of the same compound?
A: The value was 98.

Q: What about the “phytotoxicity rating IPOHE” value ([11]; 250 g ai/ha) of the same compound?
A: The value was 100.

Q: And the “phytotoxicity rating SETVI” value ([12]; 63 g ai/ha)?
A: The value was 55.

Q: And the “phytotoxicity rating SETVI” value ([12]; 250 g ai/ha)?
A: Its value is 99.

Q: What about the “phytotoxicity rating ABUTH” value ([13]; 63 g ai/ha) of the same compound?
A: The value was 100.

Q: And the “phytotoxicity rating ABUTH” value ([13]; 250 g ai/ha)?
A: The value was 100.

Q: And the “phytotoxicity rating DIGSA” value ([14]; 63 g ai/ha)?
A: Its value is 75.

Q: What about the “phytotoxicity rating DIGSA” value ([14]; 250 g ai/ha) of the same compound?
A: The value was 75.

Q: What about the “phytotoxicity rating CASOB” value ([15]; 63 g ai/ha) of the same compound?
A: Its value is 98.

Q: And the “phytotoxicity rating CASOB” value ([15]; 250 g ai/ha)?
A: Its value is 98.

Q: What about the “phytotoxicity rating CHEAL” value ([16]; 63 g ai/ha) of the same compound?
A: Its value is 100.

Q: What about the “phytotoxicity rating CHEAL” value ([16]; 250 g ai/ha) of the same compound?
A: Its value is 100.

Q: What about the “phytotoxicity rating ECHCO” value ([17]; 63 g ai/ha) of the same compound?
A: The value was 50.

Q: What about the “phytotoxicity rating ECHCO” value ([17]; 250 g ai/ha) of the same compound?
A: The value was 75.

Q: What about the “phytotoxicity rating SORHA” value ([18]; 63 g ai/ha) of the same compound?
A: Its value is 70.

Q: What about the “phytotoxicity rating SORHA” value ([18]; 250 g ai/ha) of the same compound?
A: Its value is 99.

Q: And the “phytotoxicity rating AMBEL” value ([19]; 63 g ai/ha)?
A: Its value is 85.

Q: What about the “phytotoxicity rating AMBEL” value ([19]; 250 g ai/ha) of the same compound?
A: Its value is 100.

Q: What about the “phytotoxicity rating AMARE” value ([20]; 63 g ai/ha, scale 0-100 (0 no damage, 100 complete death)) of the same compound?
A: The value was 100.

Q: What about the “phytotoxicity rating AMARE” value ([20]; 250 g ai/ha, scale 0-100) of the same compound?
A: The value was 100.

Q: What about the “phytotoxicity rating XANST” value ([21]; 63 g ai/ha) of the same compound?
A: The value was 100.

Q: And the “phytotoxicity rating XANST” value ([21]; 250 g ai/ha)?
A: Its value is 100.

Q: And the “phytotoxicity rating IPOHE” value ([22]; 63 g ai/ha)?
A: Its value is 98.

Q: What about the “phytotoxicity rating IPOHE” value ([22]; 250 g ai/ha) of the same compound?
A: Its value is 100.

Q: What about the “crop damage rating RICE” value ([23]; 63 g ai/ha) of the same compound?
A: The value was 45.

Q: And the “crop damage rating RICE” value ([23]; 250 g ai/ha)?
A: The value was 85.

Q: And the “crop damage rating CORN” value ([24]; 63 g ai/ha)?
A: The value was 80.

Q: And the “crop damage rating CORN” value ([24]; 250 g ai/ha)?
A: Its value is 100.

Q: And the “crop damage rating RICE” value ([25]; 63 g ai/ha)?
A: Its value is 45.

Q: What about the “crop damage rating RICE” value ([25]; 250 g ai/ha) of the same compound?
A: Its value is 85.

Q: And the “crop damage rating CORN” value ([26]; 63 g ai/ha)?
A: The value was 80.

Q: And the “crop damage rating CORN” value ([26]; 250 g ai/ha)?
A: The value was 100.

Reference: US6770597B2, “Benzohydrazide derivatives as herbicides and desiccant compositions containing them” (Ishihara Sangyo Kaisha, Ltd., priority 2002, dated 2004)
